Molecules are shown by their SMILES. Like-named read-outs stand apart in the source and are kept apart here.

The target of one data set is T1, TRPA1 (Homo sapiens, UniProt O75762).
T1 construct: expressed in transfected cells
The data set is described as follows: Bioassay in cells transfected with TRPA1, Prof. Lee laboratory, Duke University. It is filed as cell-based.

Another data set concerns tongue. The data set is described as follows: Oral cavity screen, 15 mg of white crystals on dorsal surface of the tongue. It counts as in vivo, human. How it is done:
The first screening tests conducted in this discovery to assess candidates that produce refreshing cooling in the oral cavity. Test agents, prepared as 15 mg of white crystals, were placed on the dorsal surface of the tongue. The chemical structures and identifying characteristics are in Table 1.

The target in data set [1] is T2, TRPM8 (Homo sapiens, UniProt Q7Z2W7). The conditions noted are these: Ref#2; cited from earlier work.
The target in data set [2] is T2, TRPM8. The conditions noted are these: Ref#6; cited from earlier work.
Data set [3] has as its target mouse cold-menthol receptor TRPM8 (Mus musculus, UniProt Q8R4D5). Particulars: Ref#1; cited from earlier work.
A further data set has as its system skin. The conditions noted are these: for treatment of skin dysesthesia (insect bites, skin allergies, thermal injury): topical gel on skin.
Data set [4] has as its target T2, TRPM8. As to the kind of experiment: Bioassay of FEMA 4557 (BUDA) on TRPM8, Prof. Lee laboratory, Duke University. It counts as cell-based.
Another data set has as its system nasal cavity. As to the kind of experiment: Study 1: NasoNeb nebulizer delivery to nasal cavity of subjects with rhinitis. It counts as in vivo, human. How it is done: Study 1. In this first study, a specialized nebulizer with an electronically controlled compressor was used to deliver FEMA 4557 to the nasal cavity of subjects with rhinitis. A typical dosage regimen was a 1.0 to 1.5% wt/vol solution (10 to 15 mg/mL) of FEMA 4557 over a 3 to 5 sec delivery period. […] No attempt was made to differentiate between delivered versus retained dose. The severity of rhinitis was quantified by gravimetric measurement of secretions and exudates from the nasal cavity (FIG. 15). Subjects were instructed to blow into a pre-weighed paper tissue and record the weight of the tissue after blowing. The tissue was inspected and marked as clear, with streaks of exudates, or dense gel. The nasal blowouts fell into three distinct categories of weights that were easy to recognize. […] The weight of the blowouts provides an objective index of nasal cavity inflammation. Nasal secretions were inhibited by topical administration of FEMA 4557, dissolved at 15 mg/ml in an ethanol, polysorbate 80, and saline mixture (FIG. 16). A Nasoneb® apparatus delivered FEMA 4557 into the nasal cavity (FIG. 13). The test substance was sprayed into the nasal cavity for 5 sec at t=0, 2, and 5 hr. The data points were fitted by linear regression (GraphPad Prism), and the 10-hr secretion was measured as ([…]). The results were vehicle 3.16±0.10 g and FEMA 4557 1.86±0.07 g, with n=6 and 5 observations per group, respectively. […] Inhibition of nasal secretions by topical administration of FEMA 4557, 15 mg/ml, delivered into the nasal cavity, is further illustrated by plotting the individual blowout units, in g per blowout FIG. 17. The test substances were sprayed into the nasal cavity for 5 sec at t=0, 2, and 5 hr. […] Thus, the anti-inflammatory effect of FEMA 4557 is further confirmed.

A further data set deals with philtrum skin. The data set is described as follows: Philtrum skin assay of cooling. The conditions noted are these: for Duration (min) of cooling / Comments (sensation): 8% wt/vol gel on philtrum skin. It counts as in vivo, human. An excerpt:
Wei (2012) proposed the use of the skin on the philtrum as a test site for cooling activity of chemicals. The philtrum is the midline groove above the upper lip border and vermilion and is the drug application site. The gel is placed on the philtrum with a cotton-tipped applicator up to the nasolabial folds and sometimes, but not deliberately, on the lower nostrils (subnasale). Cold receptors densely innervate the philtrum skin, second only to the surfaces of the eyeball, nasal surfaces, and anogenitalia. The lips also have a high density of “cold spots.” This is called the philtrum assay. The test substance is dissolved in a carrier, such as solvent, gel, or ointment and applied to the philtrum, a surface area of ˜10 to 12 cm2. The subject records sensations on the philtrum and environs on a scale of 0 to 3, as: 0=no changes in sensation, 1=a slight feeling of coolness, cold or tingling, 2=a clearcut feeling of coolness or cold and 3=a robust feeling of coolness and cold. The intervals for measurements are usually 0, 1, 3, 5 min after application, and at then 5 min or longer intervals thereafter until two successive zeros are obtained. Test substances are applied to the philtrum using a cotton-tipped applicator (Puritan Cotton-tipped applicators, or Q-Tips). The applicator tip is dipped into a reservoir bottle containing the liquid or semi-liquid (gel) test substance. The composition adhering to the cotton (about 0.2 mL) is put on the skin. A subject can practice the method in front of a mirror with a high-intensity light source.

Data set [5] concerns the target T2, TRPM8. Particulars: Ref#3; cited from earlier work.

T2 sequence (Q7Z2W7 whole entry, species assumed): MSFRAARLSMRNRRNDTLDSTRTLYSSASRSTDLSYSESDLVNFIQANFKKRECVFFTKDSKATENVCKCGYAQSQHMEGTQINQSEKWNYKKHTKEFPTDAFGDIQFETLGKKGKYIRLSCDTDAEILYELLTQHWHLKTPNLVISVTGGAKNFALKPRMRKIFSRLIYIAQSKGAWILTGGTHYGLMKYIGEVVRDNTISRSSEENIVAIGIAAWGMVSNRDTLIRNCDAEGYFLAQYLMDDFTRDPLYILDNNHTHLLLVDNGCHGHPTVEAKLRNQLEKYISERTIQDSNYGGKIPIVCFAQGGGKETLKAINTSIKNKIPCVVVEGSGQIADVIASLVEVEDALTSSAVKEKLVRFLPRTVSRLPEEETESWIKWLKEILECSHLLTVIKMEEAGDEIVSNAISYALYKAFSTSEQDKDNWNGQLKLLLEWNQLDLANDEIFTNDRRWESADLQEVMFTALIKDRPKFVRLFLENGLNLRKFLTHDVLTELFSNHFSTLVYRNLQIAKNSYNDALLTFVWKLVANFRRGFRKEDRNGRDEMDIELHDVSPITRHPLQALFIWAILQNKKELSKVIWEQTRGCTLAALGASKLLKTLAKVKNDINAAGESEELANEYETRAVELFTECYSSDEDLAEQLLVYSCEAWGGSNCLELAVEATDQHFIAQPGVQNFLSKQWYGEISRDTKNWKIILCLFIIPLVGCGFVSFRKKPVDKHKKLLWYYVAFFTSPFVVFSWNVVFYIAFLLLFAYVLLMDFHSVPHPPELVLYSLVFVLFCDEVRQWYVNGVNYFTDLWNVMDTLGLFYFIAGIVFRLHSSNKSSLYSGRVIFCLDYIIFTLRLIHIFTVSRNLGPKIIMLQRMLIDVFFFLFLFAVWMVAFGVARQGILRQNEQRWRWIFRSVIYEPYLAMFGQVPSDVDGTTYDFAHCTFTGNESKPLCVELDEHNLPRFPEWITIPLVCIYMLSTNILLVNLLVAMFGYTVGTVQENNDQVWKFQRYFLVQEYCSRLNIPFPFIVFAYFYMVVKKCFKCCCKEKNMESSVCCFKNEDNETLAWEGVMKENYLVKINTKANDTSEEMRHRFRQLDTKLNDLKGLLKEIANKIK
T1 sequence (O75762 whole entry, species assumed): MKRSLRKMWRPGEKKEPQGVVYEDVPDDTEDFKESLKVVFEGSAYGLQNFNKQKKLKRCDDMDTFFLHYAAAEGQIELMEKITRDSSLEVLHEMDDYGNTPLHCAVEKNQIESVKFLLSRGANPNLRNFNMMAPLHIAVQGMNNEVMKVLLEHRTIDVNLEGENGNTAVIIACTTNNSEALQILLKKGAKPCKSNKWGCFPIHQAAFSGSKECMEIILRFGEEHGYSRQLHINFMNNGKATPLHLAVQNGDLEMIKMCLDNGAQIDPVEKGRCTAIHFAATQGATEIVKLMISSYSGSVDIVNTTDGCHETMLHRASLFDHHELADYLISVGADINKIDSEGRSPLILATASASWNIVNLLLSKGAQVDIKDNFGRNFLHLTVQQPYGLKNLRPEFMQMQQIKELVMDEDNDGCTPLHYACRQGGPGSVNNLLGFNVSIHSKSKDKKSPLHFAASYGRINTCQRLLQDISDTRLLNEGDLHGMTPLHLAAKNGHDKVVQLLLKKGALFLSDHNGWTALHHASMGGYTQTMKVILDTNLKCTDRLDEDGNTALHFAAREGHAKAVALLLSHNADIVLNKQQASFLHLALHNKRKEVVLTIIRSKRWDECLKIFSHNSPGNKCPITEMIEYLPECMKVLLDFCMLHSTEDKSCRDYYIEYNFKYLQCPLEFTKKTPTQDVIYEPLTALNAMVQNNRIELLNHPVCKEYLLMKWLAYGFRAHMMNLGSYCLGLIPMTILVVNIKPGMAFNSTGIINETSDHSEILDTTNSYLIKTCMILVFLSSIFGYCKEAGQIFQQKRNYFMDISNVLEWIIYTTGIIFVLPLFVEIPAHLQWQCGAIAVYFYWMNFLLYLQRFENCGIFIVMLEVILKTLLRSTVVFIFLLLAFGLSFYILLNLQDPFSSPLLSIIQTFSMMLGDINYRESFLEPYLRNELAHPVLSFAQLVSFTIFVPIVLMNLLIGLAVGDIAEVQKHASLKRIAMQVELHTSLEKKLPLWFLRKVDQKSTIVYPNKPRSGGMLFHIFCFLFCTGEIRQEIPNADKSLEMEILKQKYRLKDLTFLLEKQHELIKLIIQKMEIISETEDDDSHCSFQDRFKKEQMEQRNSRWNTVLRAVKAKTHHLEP
Chain of mouse cold-menthol receptor TRPM8 (Q8R4D5 whole entry): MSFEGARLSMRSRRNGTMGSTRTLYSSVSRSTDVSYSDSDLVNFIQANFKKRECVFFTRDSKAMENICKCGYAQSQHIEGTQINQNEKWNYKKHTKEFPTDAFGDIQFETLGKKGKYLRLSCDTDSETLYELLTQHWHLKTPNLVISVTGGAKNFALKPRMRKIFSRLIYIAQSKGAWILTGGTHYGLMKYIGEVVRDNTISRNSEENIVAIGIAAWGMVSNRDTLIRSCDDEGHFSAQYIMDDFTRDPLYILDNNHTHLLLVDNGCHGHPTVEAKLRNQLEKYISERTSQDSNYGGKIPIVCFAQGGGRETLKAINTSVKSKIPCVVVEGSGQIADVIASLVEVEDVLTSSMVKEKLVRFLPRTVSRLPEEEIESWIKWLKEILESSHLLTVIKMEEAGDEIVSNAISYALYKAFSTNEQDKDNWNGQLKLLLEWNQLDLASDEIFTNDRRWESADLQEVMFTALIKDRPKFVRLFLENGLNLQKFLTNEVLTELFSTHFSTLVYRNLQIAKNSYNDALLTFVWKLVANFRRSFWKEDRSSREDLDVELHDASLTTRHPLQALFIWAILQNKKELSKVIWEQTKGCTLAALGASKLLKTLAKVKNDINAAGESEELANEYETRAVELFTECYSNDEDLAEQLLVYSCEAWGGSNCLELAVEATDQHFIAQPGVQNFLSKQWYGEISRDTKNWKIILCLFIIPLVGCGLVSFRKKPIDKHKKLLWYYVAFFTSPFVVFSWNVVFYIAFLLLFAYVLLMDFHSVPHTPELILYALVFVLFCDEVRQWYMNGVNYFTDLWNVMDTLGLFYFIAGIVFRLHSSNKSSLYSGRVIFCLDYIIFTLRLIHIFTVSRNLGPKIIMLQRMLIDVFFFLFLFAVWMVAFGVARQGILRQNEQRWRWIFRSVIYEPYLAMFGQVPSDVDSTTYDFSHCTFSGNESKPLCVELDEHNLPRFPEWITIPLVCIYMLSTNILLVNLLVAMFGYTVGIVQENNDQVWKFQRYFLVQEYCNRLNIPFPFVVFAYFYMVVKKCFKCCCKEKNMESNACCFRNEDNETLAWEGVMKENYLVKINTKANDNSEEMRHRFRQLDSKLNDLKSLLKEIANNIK
Excerpt for TRPA1: Data from the laboratory of Prof. Seok-Yong Lee's at Duke University.
Seok-Yong Lee at Duke University (FIG. 3).

`C=CCN=C=S` [AITC, allyl isothiocyanate]: on TRPA1, the “activity on TRPA1” value is “active”.

Consider `CC(C)OC(=O)CNC(=O)[C@@H]1C[C@H](C)CC[C@H]1C(C)C` [Ax-8, p-Menthane-Gly- OiPr], for which, in the data set with tongue, the “Effects of 15 mg on tongue (duration)” value is given as about 27 min and the “Effects of 15 mg on tongue (sensation)” value was “pleasant cooling in oral cavity”.

For orientation: EC50 means the concentration giving half of the maximal effect. Take `CCOC(=O)[C@@H](C)NC(=O)[C@@H]1C[C@H](C)CC[C@H]1C(C)C` [CPS-369]: the values for the EC50 at TRPM8 [1] and at TRPM8 [2] were 3.6 µM and 65 µM, respectively.

`CC(C)[C@@H]1CC[C@@H](C)C[C@H]1OCC(O)CO` (some centres unmarked) [Cool 10, menthoxypropanediol]: the EC50 in [3] is 6 µM.

As to `CCCCCCCP(=O)(C(C)C)C(C)C` [Cryosim-1, 1-diisopropyl-phosphorylheptane], in the data set with tongue, the “Effects of 15 mg on tongue (sensation)” value is “stinging, painful cold”.

Consider `CCNC(=O)C(CC)(C(C)C)C(C)C` [FEMA 4557, N-ethyl-2,2-diisopropyl butanamide], for which the “tissue irritation or inflammation on skin” value in the data set on skin (human, in vivo) is “no tissue irritation or inflammation appeared on the skin”. In addition, the “duration of stopping irritation of an insect sting” value with skin (topical gel 8 to 16% wt/vol) was at least 3 h. Also, in the data set on skin (topical gel 8 to 16% wt/vol), the “onset of stopping irritation of an insect sting” value is on record as “less than 3 minutes”. In the data set with skin (total dose of several mg), the “topical concentration with anti-inflammatory activity on skin” value is at least 5 % wt/vol. On TRPA1, the “activity on TRPA1” value is “not active”. In addition, the “EC50 relative to that of l-menthol” value on TRPM8 [4] is given as “about 1/30”. In addition, in the data set with nasal cavity (15 mg/mL, 5 sec at t=0, 2 and 5 hr, NasoNeb, n=5, vehicle 3.16±0.10 g), the “10-hr nasal secretion (avg.±s.e.m)” value is 1.86±0.07 g. Besides, the “individual nasal blowouts (average±s.e.m.)” value with nasal cavity (15 mg/mL, 5 sec at t=0, 2 and 5 hr, NasoNeb, n=56, vehicle 0.38±0.03 g) is 0.21 ± 0.03 g. Moreover, the “concentration that stops stuffiness of rhinitis and inhibits phlegm secretion” value with nasal cavity (applied to inflamed nasal membranes) is given as at most 1.5 % wt/vol. Besides, the “onset of beneficial effects after delivery” value with nasal cavity (topical nasal delivery) is listed as at most 15 min. In addition, the “average time of cooling” value with philtrum skin (2% concentration) was 50 min; in the data set with philtrum skin (4% concentration), 95 min; in the data set with philtrum skin (8% concentration), at least 175 min. The duration of cooling with philtrum skin (8% gel, FIG. 4) is about 3 h. In the data set on philtrum skin, the “Duration (min) of cooling” value was 180+ min. Further, the “irritation of the skin” value in the data set on philtrum skin (concentrations of up to 12% weight/volume on philtrum skin) is recorded as “no irritation of the skin was observed with FEMA”. The “Effects of 15 mg on tongue (duration)” value in the data set with tongue was over 35 min. In addition, at TRPM8 [5], the EC50 is 1.6 µM.

As for `CCNC(=O)[C@@H]1C[C@H](C)CC[C@H]1C(C)C` [WS-3], the results for the EC50 on TRPM8 [2] and on TRPM8 [5] were 210 µM and 5.9 µM, respectively. Moreover, in the data set on tongue, the “Effects of 15 mg on tongue (duration)” value is given as about 8 min. Moreover, the “Effects of 15 mg on tongue (sensation)” value in the data set with tongue is listed as “pleasant cooling in oral cavity”.

`CCOC(=O)CNC(=O)[C@@H]1C[C@H](C)CC[C@H]1C(C)C` [WS-5]: the “treatment of skin dysesthesia (insect bites, skin allergies, thermal injury)” value (from here on “treatment of skin dysesthesia”) in the data set on skin is “ineffective”. At TRPM8 [2], the EC50 is 26 µM. Also, in the data set with philtrum skin, the “Comments (sensation)” value is recorded as “pleasant cool sensations of skin” and the “Duration (min) of cooling” value is given as 51 ± 4 min. Also, in the data set with tongue, the “Effects of 15 mg on tongue (duration)” value was about 12 min and the “Effects of 15 mg on tongue (sensation)” value is on record as “pleasant cooling in oral cavity”. Further, on TRPM8 [5], the EC50 is 0.5 µM.

On to `COc1ccc(NC(=O)[C@@H]2C[C@H](C)CC[C@H]2C(C)C)cc1` [WS-12], for which the “treatment of skin dysesthesia” value in the data set with skin is “ineffective”. Also, at TRPM8 [1], the concentration giving a half-maximal response (EC50) was 0.2 µM. In the data set with philtrum skin, the “Comments (sensation)” value is “pleasant cool sensations on skin” and the “Duration (min) of cooling” value is 38 ± 4 min. For the same compound, in the data set with tongue, the “Effects of 15 mg on tongue (duration)” value is recorded as about 20 min and the “Effects of 15 mg on tongue (sensation)” value is given as “pleasant cooling in oral cavity”. In addition, the EC50 on TRPM8 [5] was 22.1 µM.

With `CNC(=O)C(C)(C(C)C)C(C)C` [WS-23], the “treatment of skin dysesthesia” value in the data set on skin is “ineffective”. Moreover, the EC50 on TRPM8 [2] is 1500 µM. For the same compound, in the data set with philtrum skin, the “Comments (sensation)” value is “short duration of action, no overt cold, but more” and the “Duration (min) of cooling” value is 25 ± 3 min. In the data set on tongue, the “Effects of 15 mg on tongue (duration)” value is “too short-lived” and the “Effects of 15 mg on tongue (sensation)” value is “painful cold in throat”. In the data set on tongue (listed as 3804), the “Effects of 15 mg on tongue (duration)” value is reported as about 18 min. In addition, on TRPM8 [5], the EC50 was 2.2 µM.

On to `CC1CCC(C(C)C)C(C(=O)OCC(O)CO)C1` (centres unmarked) [WS-30], for which the 50% effective concentration (EC50) at TRPM8 [1] was 5.6 µM.

As to `O=C1NC(c2cccc([N+](=O)[O-])c2)=CCN1c1ccccc1O` [icilin], the EC50 on TRPM8 [2] is 7 µM.

The values above are taken from US20250228800A1, “Treatment of nasal cavity inflammation and mucus hypersecretion” (priority 2024, published 2025).
